Biological target: T1, Rel/Spo (D. radiodurans) (Deinococcus radiodurans, UniProt Q9RTC7)
T1 construct: gene DR_1838; full length, His-tagged (anti-His detection), expressed in E. coli BL21 CodonPlus
T1 sequence (Q9RTC7 1-787): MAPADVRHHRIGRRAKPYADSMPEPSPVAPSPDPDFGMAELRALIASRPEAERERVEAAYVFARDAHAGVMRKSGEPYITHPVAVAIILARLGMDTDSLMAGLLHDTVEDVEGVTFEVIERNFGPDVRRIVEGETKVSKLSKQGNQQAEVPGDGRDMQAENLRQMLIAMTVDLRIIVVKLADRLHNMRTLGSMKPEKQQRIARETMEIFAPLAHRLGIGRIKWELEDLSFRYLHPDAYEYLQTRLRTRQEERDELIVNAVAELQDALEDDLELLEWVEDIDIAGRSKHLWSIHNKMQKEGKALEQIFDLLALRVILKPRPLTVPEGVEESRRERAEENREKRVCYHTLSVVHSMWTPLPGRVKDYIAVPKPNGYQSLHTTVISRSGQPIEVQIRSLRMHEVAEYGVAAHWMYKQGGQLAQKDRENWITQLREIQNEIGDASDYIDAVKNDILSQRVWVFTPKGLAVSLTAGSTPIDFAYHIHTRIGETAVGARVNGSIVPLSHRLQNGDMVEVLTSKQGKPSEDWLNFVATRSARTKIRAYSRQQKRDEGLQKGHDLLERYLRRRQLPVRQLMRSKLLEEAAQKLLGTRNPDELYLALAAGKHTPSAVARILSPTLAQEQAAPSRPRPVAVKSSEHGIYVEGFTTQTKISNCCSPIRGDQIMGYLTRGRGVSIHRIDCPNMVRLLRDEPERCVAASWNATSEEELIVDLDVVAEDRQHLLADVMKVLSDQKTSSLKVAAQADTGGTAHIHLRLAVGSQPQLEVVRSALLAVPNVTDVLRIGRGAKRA
Assay: (p)ppGpp synthesis from alpha-32P-GTP, PEI-TLC autoradiography
Format: biochemical
Details: 0.5 mM GTP, 4 mM ATP, 10 mM MgCl2, pH 7.4, isolated ribosomes; inhibitor concentration only in figure

CC(C)C(=O)Nc1nc2c(ncn2[C@H]2C[C@H](OC(=O)NCC(=O)NCC(=O)O)[C@@H](COC(=O)NCC(=O)NCC(=O)O)O2)c(=O)[nH]1 [Relacin]
% inhibition at highest Relacin concentration: ~ 80%
